Experimental data as given in ChEMBL document CHEMBL1201862, “PubChem BioAssay data set” (2004).
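Exposure lasted 48 hours, with cells grown in 96-well plates and compounds tested at five concentrations. Abbreviation: GI50, concentration required for 50% inhibition of growth.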 The source made the active and inactive calls. Cut-off read from the data, not from the text of the source: active = GI50 up to about 1.1 µM and inactive = higher.

Legend:
Experiment in all cases: DTP human tumour cell line panel, 48 h
OVCAR-5 = tested on: OVCAR-5
SK-MEL-5 = tested on: SK-MEL-5
IGROV-1 = tested on: IGROV-1
SK-OV-3 = tested on: SK-OV-3
SN12C = tested on: SN12C
HCT-116 = tested on: HCT-116
EKVX = tested on: EKVX
SK-MEL-2 = tested on: SK-MEL-2
ACHN = tested on: ACHN
NCI-H460 = tested on: NCI-H460
UACC-257 = tested on: UACC-257
HCC 2998 = tested on: HCC 2998
OVCAR-4 = tested on: OVCAR-4
NCI-H23 = tested on: NCI-H23
TK-10 = tested on: TK-10
UO-31 = tested on: UO-31
HOP-62 = tested on: HOP-62
DU-145 = tested on: DU-145
MDA-MB-231 = tested on: MDA-MB-231

| SMILES | GI50 (OVCAR-5) | GI50 (SK-MEL-5) | GI50 (IGROV-1) | GI50 (SK-OV-3) | GI50 (SN12C) | GI50 (HCT-116) | GI50 (EKVX) | GI50 (SK-MEL-2) | GI50 (ACHN) | GI50 (NCI-H460) | GI50 (UACC-257) | GI50 (HCC 2998) | GI50 (OVCAR-4) | GI50 (NCI-H23) | GI50 (TK-10) | GI50 (UO-31) | GI50 (HOP-62) | GI50 (DU-145) | GI50 (MDA-MB-231) |
| --- | --- | --- | --- | --- | --- | --- | --- | --- | --- | --- | --- | --- | --- | --- | --- | --- | --- | --- | --- |
| CCN(CCCl)CCNc1c2ccccc2nc2ccc(OC)cc12 | 1.36 µM (inactive) | 1.12 µM (active) | 0.463 µM (active) | 1.35 µM (inactive) | 0.548 µM (active) | 0.236 µM (active) | 1.27 µM (inactive) | 1.03 µM (active) | 0.127 µM (active) | 0.273 µM (active) | 1.52 µM (inactive) | 0.847 µM (active) | 0.794 µM (active) | 0.514 µM (active) | 1.58 µM (inactive) | 1.44 µM (inactive) | 1.12 µM (active) | – | – |
| CN1CCc2c1nc(-c1ccc([N+](=O)[O-])cc1)c1c2N(C)CC1 | > 100 µM (inactive) | 97.3 µM (inactive) | > 100 µM (inactive) | > 100 µM (inactive) | > 100 µM (inactive) | 15.9 µM (inactive) | > 100 µM (inactive) | > 100 µM (inactive) | > 100 µM (inactive) | > 100 µM (inactive) | > 100 µM (inactive) | > 100 µM (inactive) | > 100 µM (inactive) | > 100 µM (inactive) | > 100 µM (inactive) | 33.1 µM (inactive) | 86.7 µM (inactive) | – | – |
| CCc1cccc(C)c1NC(=O)CCc1nnc(S)[nH]1 | > 100 µM (inactive) | > 100 µM (inactive) | > 100 µM (inactive) | > 100 µM (inactive) | > 100 µM (inactive) | > 100 µM (inactive) | > 100 µM (inactive) | > 100 µM (inactive) | > 100 µM (inactive) | > 100 µM (inactive) | > 100 µM (inactive) | > 100 µM (inactive) | > 100 µM (inactive) | > 100 µM (inactive) | > 100 µM (inactive) | > 100 µM (inactive) | > 100 µM (inactive) | – | – |
| CC(C)c1cc(C(C)C)c(Cl)c(Cl)c1O.CC(C)c1cc(Cl)c(O)c(C(C)C)c1Cl | 48.3 µM (inactive) | 0.063 µM (active) | 21.6 µM (inactive) | – | 22.4 µM (inactive) | 76.7 µM (inactive) | 20.5 µM (inactive) | 18.5 µM (inactive) | 23.4 µM (inactive) | 30 µM (inactive) | 20 µM (inactive) | 28.8 µM (inactive) | – | 39.2 µM (inactive) | 26.5 µM (inactive) | 23.2 µM (inactive) | 32.7 µM (inactive) | 35 µM (inactive) | 20.1 µM (inactive) |
| NC(=O)N/N=C(\Cc1nc2ccc(C(=O)c3ccccc3)cc2nc1O)C(=O)Nc1ccc(Br)cc1 | > 100 µM (inactive) | > 100 µM (inactive) | > 100 µM (inactive) | > 100 µM (inactive) | > 100 µM (inactive) | > 100 µM (inactive) | > 100 µM (inactive) | > 100 µM (inactive) | > 100 µM (inactive) | > 100 µM (inactive) | > 100 µM (inactive) | > 100 µM (inactive) | > 100 µM (inactive) | > 100 µM (inactive) | > 100 µM (inactive) | > 100 µM (inactive) | > 100 µM (inactive) | – | – |
| Cc1ccc(C(=O)N2CCCCC2)cc1/N=N/N(C)C | > 100 µM (inactive) | > 100 µM (inactive) | > 100 µM (inactive) | > 10 µM (inactive) | > 100 µM (inactive) | > 100 µM (inactive) | > 100 µM (inactive) | > 100 µM (inactive) | > 100 µM (inactive) | > 100 µM (inactive) | > 100 µM (inactive) | > 100 µM (inactive) | > 100 µM (inactive) | > 100 µM (inactive) | > 100 µM (inactive) | > 100 µM (inactive) | > 100 µM (inactive) | – | – |
